Laboratory results: patent US12545669B2, “Cycloalkyl and heterocycloalkyl benzisoxazole sulfonamide derivatives” (Pfizer Inc., priority 2019, dated 2026)
Like-named read-outs stand apart in the source and are kept apart here.

Target: KAT6A (Homo sapiens (Human), UniProt Q92794)
Test: KAT assay protocol (SAMDI mass spectrometry), KAT6A
Assay type: biochemical
Details: for inhibition at 1 µM: 1 μM compound; for IC50: KAT6A IC50 at 1 μM AcCoA, 1 μM AcCoA; for Ki: 10 μM AcCoA, Morrison equation
Method: Biological Assay Section 1 KAT Assay Protocol:
A. Compound Preparation • 1. Prepare 10 mM stock solutions in 100% DMSO from solid material • 2. Serial dilute 10 mM, 1 mM or 0.1 mM compound stocks 3-fold in 100% DMSO for 11-point dose response
B. Reagent Preparation • 1. Prepare 1× assay buffer containing 10 mM Tris HCL pH 8.0, 2.5 mM NaCl, 0.5 mM EDTA, 0.005% BSG and 0.02% Tween-20 • 2. Dilute Histone peptide (CPC Scientific) and AcCoA (Sigma) together in assay buffer to 2×. • 3. Dilute KAT enzyme in assay buffer to 2×.
C. Enzyme Reaction • 1. Final reaction conditions for each KAT assay in a 20 ul assay reaction volume: • i. […] Add 0.5 ul of diluted compound to the assay plate (384-well V-bottom polypropylene plates) or 0.5 ul of DMSO for control wells. • 3. Add 10 ul of 2× Histone peptide/2× AcCoA mix to the assay plate. • 4. Add 10 ul of 2× enzyme to the assay plate. • 5. Stop the reaction after the indicated time with the addition of 2 ul of 5% formic acid • 6. Each reaction was analyzed using self-assembled monolayer desorption/ionization time-of-flight mass spectrometry (Mrksich, Milan (2008) Mass Spectrometry of Self-Assembled Monolayers: A New Tool for Molecular Surface Science ACS Nano 2008 2 (1), 7-18; SAMDI Tech, Inc. (Chicago, IL)). • 7. Area under the curve (AUC) for both substrate and product peaks was determined for KAT6A at M.W. 2723 [Substrate+H]^+ and 2765 [Product+H]^+ with a +/−1 Da tolerance, respectively. • 8. Percent conversion to product was calculated by: AUCProduct/(AUCSubstrate+AUCProduct).
D. Data Analysis • 1. IC50 values were determined by fitting the % conversion at each inhibitor concentration to the 4-parameter IC50 equation using Pfizer proprietary curve fitting software. • 2. Ki values were determined by fitting the % conversion at each inhibitor concentration to the Morrison equation for tightbinding competitive inhibitors using Pfizer proprietary curve fitting software. Materials
KAT enzymes were expressed using a baculovirus expression system and purified at Pfizer, La Jolla. Histone H3 (1-21) peptide ([…], SEQ ID NO:3) was purchased from CPC Scientific (Sunnyvale, CA). Acetyl coenzyme A was purchased from Sigma-Aldrich (St. Louis, MO). All other biochemical reagents were purchased from Sigma-Aldrich or ThermoFisher Scientific (Waltham, MA).
[…] 10 ul of 2× Histone peptide/AcCoA mix was added to a 384-well V-bottom polypropylene assay plate containing 0.5 ul of serially diluted test compound in 100% dimethyl sulfoxide (DMSO). To start the reaction, 10 ul of 2× enzyme solution was added to the assay plate. KAT assays were terminated after 30-60 minutes with the addition of 2 ul of 5% formic acid. KAT6A used histone H3 (1-21) peptide. The final enzyme concentration for KAT6A was 15 nM. Each reaction was analyzed using self-assembled monolayer desorption/ionization time-of-flight mass spectrometry (Mrksich, Milan (2008) Mass Spectrometry of Self-Assembled Monolayers: A New Tool for Molecular Surface Science ACS Nano 2008 2 (1), 7-18; SAMDI Tech, Inc. (Chicago, IL)).
Area under the curve (AUC) for both substrate and product peaks was determined for KAT6A at M.W. 2723 [Substrate+H]^+ and 2765 [Product+H]^+ with a +/−1 Da tolerance, respectively. Percent conversion to product was calculated by: AUCProduct/(AUCSubstrate+AUCProduct). IC50 values were determined by fitting the % conversion at each inhibitor concentration to the 4-parameter IC50 equation using Pfizer proprietary curve fitting software. Ki values were determined by fitting the % conversion at each inhibitor concentration to the Morrison equation for tightbinding competitive inhibitors using Pfizer proprietary curve fitting software.

[1] = read-out: KAT6A Ki at 10 μM AcCoA

KAT6A, sequence (Q92794 whole entry): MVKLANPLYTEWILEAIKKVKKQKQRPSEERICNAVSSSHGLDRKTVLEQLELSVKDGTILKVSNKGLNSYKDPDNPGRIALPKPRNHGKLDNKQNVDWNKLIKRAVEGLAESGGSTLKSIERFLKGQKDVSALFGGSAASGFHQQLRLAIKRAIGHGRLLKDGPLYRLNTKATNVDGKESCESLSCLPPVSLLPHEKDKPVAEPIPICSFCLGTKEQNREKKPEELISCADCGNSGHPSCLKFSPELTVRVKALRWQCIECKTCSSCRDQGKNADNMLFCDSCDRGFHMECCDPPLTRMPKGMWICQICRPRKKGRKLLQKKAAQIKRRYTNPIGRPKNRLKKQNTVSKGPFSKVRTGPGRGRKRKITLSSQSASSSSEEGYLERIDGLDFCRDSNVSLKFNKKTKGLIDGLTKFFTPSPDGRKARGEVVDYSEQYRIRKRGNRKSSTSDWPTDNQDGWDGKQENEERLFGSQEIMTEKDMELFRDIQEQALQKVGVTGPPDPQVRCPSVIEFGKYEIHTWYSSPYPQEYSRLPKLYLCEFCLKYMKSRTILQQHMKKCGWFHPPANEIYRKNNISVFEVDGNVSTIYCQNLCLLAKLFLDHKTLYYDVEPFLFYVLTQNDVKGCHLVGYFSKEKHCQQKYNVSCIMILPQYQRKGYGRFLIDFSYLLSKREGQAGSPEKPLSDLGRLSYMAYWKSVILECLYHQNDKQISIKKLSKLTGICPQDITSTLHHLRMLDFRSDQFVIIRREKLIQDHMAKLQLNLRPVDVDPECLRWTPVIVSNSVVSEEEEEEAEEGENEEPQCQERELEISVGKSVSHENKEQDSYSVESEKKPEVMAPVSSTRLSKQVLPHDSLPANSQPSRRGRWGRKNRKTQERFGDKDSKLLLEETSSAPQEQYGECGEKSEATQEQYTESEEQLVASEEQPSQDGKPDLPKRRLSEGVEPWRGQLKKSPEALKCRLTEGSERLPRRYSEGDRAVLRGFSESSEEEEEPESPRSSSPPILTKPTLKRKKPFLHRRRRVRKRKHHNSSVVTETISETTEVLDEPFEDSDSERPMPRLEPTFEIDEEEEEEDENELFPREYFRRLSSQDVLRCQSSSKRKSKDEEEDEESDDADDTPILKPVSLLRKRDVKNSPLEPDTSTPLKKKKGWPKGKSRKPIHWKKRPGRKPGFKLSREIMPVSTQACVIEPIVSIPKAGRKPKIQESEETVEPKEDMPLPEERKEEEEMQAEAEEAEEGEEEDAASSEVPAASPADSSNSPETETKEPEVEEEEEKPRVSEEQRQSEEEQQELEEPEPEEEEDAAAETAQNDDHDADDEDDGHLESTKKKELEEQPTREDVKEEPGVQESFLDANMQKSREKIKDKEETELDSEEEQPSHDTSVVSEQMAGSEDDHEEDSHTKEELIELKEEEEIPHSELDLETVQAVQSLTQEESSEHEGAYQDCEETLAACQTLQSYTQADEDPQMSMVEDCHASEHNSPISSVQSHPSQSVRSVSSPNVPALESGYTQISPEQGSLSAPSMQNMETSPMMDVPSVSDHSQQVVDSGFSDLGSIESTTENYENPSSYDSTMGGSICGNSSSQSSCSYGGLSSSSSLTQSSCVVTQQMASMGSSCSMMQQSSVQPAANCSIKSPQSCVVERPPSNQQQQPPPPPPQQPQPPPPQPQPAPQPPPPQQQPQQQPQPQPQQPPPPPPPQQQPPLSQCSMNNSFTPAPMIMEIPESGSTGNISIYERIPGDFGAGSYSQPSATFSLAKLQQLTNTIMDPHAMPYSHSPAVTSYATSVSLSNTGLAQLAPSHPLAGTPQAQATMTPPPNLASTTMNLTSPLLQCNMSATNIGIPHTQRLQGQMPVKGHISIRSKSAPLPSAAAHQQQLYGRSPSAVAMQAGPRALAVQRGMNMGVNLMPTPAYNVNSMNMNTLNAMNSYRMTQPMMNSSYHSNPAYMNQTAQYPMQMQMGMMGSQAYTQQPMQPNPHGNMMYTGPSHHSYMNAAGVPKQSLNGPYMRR

Row | Structure (SMILES) | inhibition at 1 µM | Ki (KAT6A Ki at 10 μM AcCoA) | other results
1 | COc1cc(Cn2cccn2)cc2onc(NS(=O)(=O)CC3CCCCO3)c12 (single isomer, unassigned; (+)) [Example 1, (+)-N-{4-methoxy-6-[(1H-pyrazol-1-yl)methyl]-1,2-benzoxazol-3-yl}-1-(oxan-2-yl)methanesulfonamide] | 88% | – | IC50: 117 nM
2 | COc1cc(Cn2cccn2)cc2onc(NS(=O)(=O)CC3CCCCO3)c12 (single isomer, unassigned; (-)) [Example 2, (−)-N-{4-methoxy-6-[(1H-pyrazol-1-yl)methyl]-1,2-benzoxazol-3-yl}-1-(oxan-2-yl)methanesulfonamide] | – | – | IC50: 270 nM
3 | COc1cc(Cn2cccn2)cc2onc(NS(=O)(=O)CC3CCCOC3)c12 (stereo not drawn) [Example 3] | – | – | IC50: 301 nM
4 | COc1cc(Cn2cccn2)cc2onc(NS(=O)(=O)CC3CCCOC3)c12 (stereo not drawn) [Example 4] | – | – | IC50: 349 nM
5 | COc1cc(Cn2cccn2)cc2onc(NS(=O)(=O)CC3CCCO3)c12 (stereo not drawn) [Example 5] | – | – | IC50: 323 nM
6 | COc1cc(Cn2cccn2)cc2onc(NS(=O)(=O)CC3CCCO3)c12 (stereo not drawn) [Example 6] | – | – | IC50: 371 nM
7 | COc1cc(Cn2cccn2)cc2onc(NS(=O)(=O)CC3CCOCC3)c12 [Example 7, N-{4-methoxy-6-[(1H-pyrazol-1-yl)methyl]-1,2-benzoxazol-3-yl}-1-(oxan-4-yl)methanesulfonamide] | 51% | 177 nM | –
8 | COc1cc(Cn2cccn2)cc2onc(NS(=O)(=O)CC3CCC(F)CC3)c12 (stereo not drawn) [Example 8] | 77% | – | –
9 | COc1cc(Cn2cccn2)cc2onc(NS(=O)(=O)CC3CCCC3)c12 [Example 9] | 91% | 60.1 nM | –
10 | COc1cc(Cn2cccn2)cc2onc(NS(=O)(=O)CC3CCC(F)(F)CC3)c12 [Example 10] | 48% | 89.4 nM | –
11 | CCOC1(CS(=O)(=O)Nc2noc3cc(Cn4cccn4)cc(OC)c23)CCC1 [Example 11] | 45% | 371 nM | –
12 | COc1cc(Cn2cccn2)cc2onc(NS(=O)(=O)C3CCC3)c12 [Example 12] | 59% | – | Ki [1]: 199 nM
13 | COc1cc(Cn2cccn2)cc2onc(NS(=O)(=O)C3CC3)c12 [Example 13] | – | – | Ki [1]: 224 nM
14 | COc1cc(Cn2cccn2)cc2onc(NS(=O)(=O)C3CC(CC#N)C3)c12 (stereo not drawn) [Example 14] | – | 160 nM | –
15 | COc1cc(Cn2cccn2)cc2onc(NS(=O)(=O)C3CCC(C#N)C3)c12 (stereo not drawn) [Example 16] | 81% | – | –
16 | COc1cc(Cn2cccn2)cc2onc(NS(=O)(=O)CC3CCC3)c12 [Example 17] | 83% | 82.4 nM | –
17 | COc1cc(Cn2cccn2)cc2onc(NS(=O)(=O)[C@H]3CCC[C@H]3OC)c12 [Example 18] | 83% | – | Ki [1]: 71.9 nM
18 | COc1cc(Cn2cccn2)cc2onc(NS(=O)(=O)CC3CCCC(F)(F)C3)c12 (stereo not drawn) [Example 19] | 81% | 65.3 nM | –
19 | COc1cc(Cn2cccn2)cc2onc(NS(=O)(=O)C3CCCC3)c12 [Example 20] | – | – | Ki [1]: 36.5 nM
20 | COc1cc(Cn2cccn2)cc2onc(NS(=O)(=O)C3CCC(C)C3)c12 (stereo not drawn) [Example 21] | 84% | 34.5 nM | –
21 | COc1cc(Cn2cccn2)cc2onc(NS(=O)(=O)CC3(C)CCCCC3)c12 [Example 22] | 60% | 33.2 nM | –
22 | COc1cc(Cn2cccn2)cc2onc(NS(=O)(=O)CCC3CC3)c12 [Example 23] | 92% | 31.6 nM | –
23 | COc1cc(Cn2cccn2)cc2onc(NS(=O)(=O)CC34CCC(CC3)CC4)c12 [Example 24] | 93% | 19.5 nM | –
24 | COc1cc(Cn2cccn2)cc2onc(NS(=O)(=O)[C@H]3C[C@H]4CC[C@H]3C4)c12 [Example 25] | 87% | 16.5 nM | –
25 | CC[C@@H]1C[C@@H]1S(=O)(=O)Nc1noc2cc(Cn3cccn3)cc(OC)c12 [Example 26] | 71% | – | –
26 | COc1cc(Cn2cccn2)cc2onc(NS(=O)(=O)[C@H]3C[C@@H]3c3ccc(F)cc3)c12 [Example 27] | – | 13.8 nM | –
27 | COc1cc(Cn2cccn2)cc2onc(NS(=O)(=O)[C@H]3C[C@H]3c3ccccc3)c12 [Example 28] | – | – | Ki [1]: 14.2 nM

Row | Structure (SMILES) | inhibition at 1 µM | Ki (KAT6A Ki at 10 μM AcCoA) | other results
28 | COc1cc(Cn2cccn2)cc2onc(NS(=O)(=O)CCC3CCC3)c12 [Example 29] | 103% | 13.1 nM | –
29 | COc1cc(Cn2cccn2)cc2onc(NS(=O)(=O)CC3CC4CCC3C4)c12 (stereo not drawn) [Example 30] | 98% | 7.32 nM | –
30 | COc1cc(Cn2cccn2)cc2onc(NS(=O)(=O)CCC3CCCCC3)c12 [Example 31] | 93% | 4.94 nM | –
31 | COc1cc(Cn2cccn2)cc2onc(NS(=O)(=O)CCC(C)(C)C3CC3)c12 [Example 32] | 108% | 4.88 nM | –
32 | COc1cc(Cn2cccn2)cc2onc(NS(=O)(=O)C3CC4(CCC4)C3)c12 [Example 33] | 65% | – | –
33 | COc1cc(Cn2cccn2)cc2onc(NS(=O)(=O)CC3(C(F)(F)F)CC3)c12 [Example 34] | 46% | – | –
34 | COc1cc(Cn2cccn2)cc2onc(NS(=O)(=O)CC3(C#N)CC3)c12 [Example 35] | 40% | – | –
35 | COc1cc(Cn2cccn2)cc2onc(NS(=O)(=O)CC3CC(F)(F)C3)c12 [Example 36] | 51% | – | –
36 | COc1cc(Cn2cccn2)cc2onc(NS(=O)(=O)CCCC3CCCCC3)c12 [Example 37] | 98% | – | –
37 | COc1cc(Cn2cccn2)cc2onc(NS(=O)(=O)CC3CC4(CCC4)C3)c12 [Example 38] | 92% | – | –
38 | COc1cc(Cn2cccn2)cc2onc(NS(=O)(=O)CC3(C)CC3)c12 [Example 39] | 52% | – | –
39 | COc1cc(Cn2cccn2)cc2onc(NS(=O)(=O)CC3(C#N)CCCCC3)c12 [Example 40] | 58% | – | –
40 | COc1cc(Cn2cccn2)cc2onc(NS(=O)(=O)CC3CCCCC3(F)F)c12 (stereo not drawn) [Example 41] | 91% | – | –
41 | COc1cc(Cn2cccn2)cc2onc(NS(=O)(=O)CC3(C)CC3(F)F)c12 (stereo not drawn) [Example 42] | 50% | – | –
42 | COc1cc(Cn2cccn2)cc2onc(NS(=O)(=O)C3CCC(OC)CC3)c12 (stereo not drawn) [Example 44] | 89% | – | –
43 | COc1cc(Cn2cccn2)cc2onc(NS(=O)(=O)CCC3CC4CCC3C4)c12 (stereo not drawn) [Example 45] | 108% | – | –
44 | COc1cc(Cn2cccn2)cc2onc(NS(=O)(=O)CC(OC)C3CCCCC3)c12 (stereo not drawn) [Example 46] | 103% | – | –
45 | COCC1(S(=O)(=O)Nc2noc3cc(Cn4cccn4)cc(OC)c23)CC1 [Example 47] | 68% | – | –
46 | COc1cc(Cn2cccn2)cc2onc(NS(=O)(=O)CC(C)C3CC3)c12 (stereo not drawn) [Example 48] | 55% | – | –
47 | COc1cc(Cn2cccn2)cc2onc(NS(=O)(=O)CC3(C(F)F)CC3)c12 [Example 50] | 87% | – | –
48 | COc1cc(Cn2cccn2)cc2onc(NS(=O)(=O)C3CCC(F)(F)CC3)c12 [Example 51] | 65% | – | –
49 | COc1cc(Cn2cccn2)cc2onc(NS(=O)(=O)CC3(OC)CCCCC3)c12 [Example 52] | 66% | 127 nM | –
50 | COc1cc(Cn2cccn2)cc2onc(NS(=O)(=O)CCC3(C)CC3)c12 [Example 53] | 97% | – | –
51 | COc1cc(Cn2cccn2)cc2onc(NS(=O)(=O)CC3CCCC(F)C3)c12 (stereo not drawn) [Example 54] | 82% | – | –
52 | COCC1(CS(=O)(=O)Nc2noc3cc(Cn4cccn4)cc(OC)c23)CCC1 [Example 55] | 64% | – | –
53 | COc1cc(Cn2cccn2)cc2onc(NS(=O)(=O)CC3(OC)CCC3)c12 [Example 56] | 71% | – | –
